≈ marks a conversion by molar mass, not a printed value.
What was measured:
[1] = tested on: Pseudomonas aeruginosa; test: Antibacterial activity against Pseudomonas aeruginosa; assay type: functional
[2] = tested on: Escherichia coli; test: Antibacterial activity against Escherichia coli; assay type: functional
[3] = tested on: Staphylococcus aureus; test: Antibacterial activity against Staphylococcus aureus; assay type: functional
[4] = tested on: Bacillus subtilis; test: Antibacterial activity against Bacillus subtilis; assay type: functional
[5] = tested on: Bacillus subtilis; test: Antibacterial activity against Bacillus subtilis assessed as zone of inhibition; assay type: functional
[6] = tested on: Salmonella enterica; test: Antibacterial activity against Salmonella enterica assessed as zone of inhibition; assay type: functional
[7] = tested on: Rattus norvegicus; test: Antiinflammatory activity in rat assessed as inhibition of carrageenan induced paw edema at 50 mg/kg; assay type: functional; design: scale not given: the % may be the effect or the level left
[8] = biological target: T1, Prostaglandin G/H synthase 1 (Ovis aries, UniProt P05979); test: Inhibition of ovine COX-1
T1 sequence (P05979 whole entry): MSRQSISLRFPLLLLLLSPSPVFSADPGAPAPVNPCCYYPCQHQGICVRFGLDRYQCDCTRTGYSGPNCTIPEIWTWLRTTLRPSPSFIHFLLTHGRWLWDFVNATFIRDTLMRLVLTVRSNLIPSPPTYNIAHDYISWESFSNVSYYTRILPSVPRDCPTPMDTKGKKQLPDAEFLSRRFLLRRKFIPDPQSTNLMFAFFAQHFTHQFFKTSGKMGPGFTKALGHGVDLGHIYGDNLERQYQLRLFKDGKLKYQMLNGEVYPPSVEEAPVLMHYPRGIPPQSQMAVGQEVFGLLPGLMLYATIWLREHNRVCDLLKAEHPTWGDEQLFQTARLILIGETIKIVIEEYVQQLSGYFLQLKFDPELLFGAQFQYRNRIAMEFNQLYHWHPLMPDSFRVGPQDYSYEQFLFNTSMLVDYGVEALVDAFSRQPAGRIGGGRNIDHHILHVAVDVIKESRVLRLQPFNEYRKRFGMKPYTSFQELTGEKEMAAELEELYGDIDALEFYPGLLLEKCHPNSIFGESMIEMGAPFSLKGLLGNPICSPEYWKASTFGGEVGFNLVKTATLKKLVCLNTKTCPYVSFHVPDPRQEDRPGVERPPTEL

[9] = Inhibition of soybean 15-LOX; design: species or system Glycine max
[10] = tested on: CHO-K1; test: Cytotoxicity against CHO-K1 cells by MTT assay; assay type: toxicity, cell-based, Cricetulus griseus; design: concentration or dose not given beside the values; conditions: chinese hamster
[11] = tested on: Aspergillus niger; test: Antifungal activity against Aspergillus niger assessed as zone of inhibition; assay type: functional
[12] = tested on: Rattus norvegicus; test: Analgesic activity in Sprague-Dawley rat at 15 mg/kg after 2 hrs by hot plate test; assay type: functional
[13] = tested on: Aspergillus niger; test: Antifungal activity against Aspergillus niger by dry weight method; assay type: functional
[14] = tested on: Fusarium verticillioides; test: Antifungal activity against Fusarium moniliforme by dry weight method; assay type: functional
[15] = tested on: Aspergillus flavus; test: Antifungal activity against Aspergillus flavus by dry weight method; assay type: functional; design: unit not given beside the values
[16] = tested on: Pseudomonas aeruginosa; test: Antibacterial activity against Pseudomonas aeruginosa assessed as zone of inhibition; assay type: functional
[17] = tested on: Staphylococcus aureus; test: Antibacterial activity against Staphylococcus aureus assessed as zone of inhibition; assay type: functional
[18] = tested on: Escherichia coli; test: Antibacterial activity against Escherichia coli assessed as zone of inhibition; assay type: functional
[19] = tested on: Candida albicans; test: Antifungal activity against Candida albicans assessed as zone of inhibition; assay type: functional
[20] = tested on: HepG2; test: Cytotoxicity against human HepG2 cells by MTT assay; assay type: functional, cell-based
[21] = tested on: MCF7; test: Cytotoxicity against human MCF7 cells by MTT assay; assay type: functional, cell-based
[22] = tested on: HCT-116; test: Cytotoxicity against human HCT-116 cells by MTT assay; assay type: functional, cell-based
[23] = tested on: MCF7; test: Cytotoxicity against human MCF7 cells by SRB assay; assay type: functional, cell-based

Cc1ccc(-c2ccnc3c(C(N)=O)c(Nc4ccccc4)nn23)cc1
MIC [1]: 7.81 µg/mL (≈ 22.7 µM)
MIC [2]: 15.6 µg/mL (≈ 45.5 µM)
MIC [3]: 7.81 µg/mL (≈ 22.7 µM)
MIC [4]: 3.9 µg/mL (≈ 11.4 µM)
inhibition zone (IZ) [5]: 9 mm

CC(=O)c1cnc2c(C(=O)Nc3ccccc3)cnn2c1C
inhibition zone (IZ) [6]: 16 mm

CCOc1cc(C)nc2c(C#N)c(Nc3cc(OC)ccn3)nn12
Activity [7]: 46%
IC50 [8]: 7.9 µM
IC50 [9]: 8.4 µM

Cc1c(NC(=O)c2cnn3cc(-c4ccccc4)cnc23)c(=O)n(-c2ccccc2)n1C
Activity [10]: 97.1%

C[C@@H]1[C@H](O)[C@@H](C)/C=C/C=C/C=C/C=C/C=C/C=C/C=C/[C@H](O[C@@H]2O[C@H](C)[C@@H](O)[C@H](N)[C@@H]2O)C[C@@H]2O[C@](O)(C[C@@H](O)C[C@@H](O)[C@H](O)CC[C@@H](O)C[C@@H](O)CC(=O)O[C@H]1C)C[C@H](O)[C@H]2C(=O)O [AMPHOTERICIN B]
inhibition zone (IZ) [11]: 23.3 mm

CC1=Nc2cc(C)nn2C(=O)/C1=N\Nc1ccc(C)cc1
Activity [12]: 96.7%

CC(Cc1ccc(O)c(O)c1)C(C)Cc1ccc(O)c(O)c1 (configuration not stated) [NORDIHYDROGUAIARETIC ACID]
IC50 [9]: 8.5 µM

CSc1nn2c(-c3cccs3)c(C#N)c(N)nc2c1-c1nc2ccccc2n1C
Activity [13]: 0.56
Activity [14]: 0.28
Activity [15]: 0.38

CN(C)[C@@H]1C(O)=C(C(N)=O)C(=O)[C@@]2(O)C(O)=C3C(=O)c4c(O)cccc4[C@@](C)(O)[C@H]3C[C@@H]12 [TETRACYCLINE]
inhibition zone (IZ) [16]: 20 mm
inhibition zone (IZ) [17]: 25 mm
MIC [1]: 62.5 µg/mL (≈ 141 µM)
MIC [2]: 15.6 µg/mL (≈ 35.1 µM)
MIC [3]: 62.5 µg/mL (≈ 141 µM)
inhibition zone (IZ) [18]: 23 mm
MIC [4]: 31.2 µg/mL (≈ 70.3 µM)
inhibition zone (IZ) [5]: 25 mm

CSc1nn2c(-c3ccccc3)c(C#N)c(=O)[nH]c2c1-c1nc2ccccc2n1C
Activity [13]: 0.43
Activity [14]: 0.16
Activity [15]: 0.33

COC(=O)c1cnc2c(C(=O)Nc3c(C)n(C)n(-c4ccccc4)c3=O)cnn2c1C
Activity [10]: 49.24%

Cc1c(NC(=O)c2cnn3c(N)c(-c4ccccc4)cnc23)c(=O)n(-c2ccccc2)n1C
Activity [10]: 45.75%

O=C(Nc1ccccc1)c1cnn2c(-c3ccccn3)ccnc12
inhibition zone (IZ) [6]: 11 mm

CC1(C)S[C@@H]2[C@H](NC(=O)[C@H](N)c3ccccc3)C(=O)N2[C@H]1C(=O)O [AMPICILLIN]
inhibition zone (IZ) [6]: 23 mm
inhibition zone (IZ) [17]: 21 mm
inhibition zone (IZ) [18]: 25 mm
inhibition zone (IZ) [5]: 26 mm

CN[C@@H]1[C@H](O[C@H]2[C@H](O[C@H]3[C@H](O)[C@@H](O)[C@H](N=C(N)N)[C@@H](O)[C@@H]3N=C(N)N)O[C@@H](C)[C@]2(O)C=O)O[C@@H](CO)[C@H](O)[C@H]1O [STREPTOMYCIN]
MIC [2]: 5 µg/mL (≈ 8.6 µM)
inhibition zone (IZ) [18]: 16.4 mm
MIC [4]: 5 µg/mL (≈ 8.6 µM)
inhibition zone (IZ) [5]: 16.2 mm

COc1ccc(Nc2nn3c(N)c(C#N)c(-c4ccc(C)cc4)nc3c2C(=O)Nc2ccc(Cl)cc2)cc1
inhibition zone (IZ) [11]: 15 mm
inhibition zone (IZ) [19]: 18 mm

CC(=O)O[C@H]1C(=O)[C@@]2(C)[C@H]([C@H](OC(=O)c3ccccc3)[C@]3(O)C[C@H](OC(=O)[C@H](O)[C@@H](NC(=O)c4ccccc4)c4ccccc4)C(C)=C1C3(C)C)[C@]1(OC(C)=O)CO[C@@H]1C[C@@H]2O [PACLITAXEL]
IC50 [20]: 4.3 µg/mL
IC50 [21]: 4.7 µg/mL
IC50 [22]: 2.9 µg/mL (≈ 3.4 µM)

Cc1ccc(N/N=C2\C(=O)n3nc(C)cc3N=C2C(F)(F)F)cc1
Activity [12]: 121.1%

COc1ccc(-c2ccnc3c(C(N)=O)c(Nc4ccccc4)nn23)cc1
inhibition zone (IZ) [16]: 9 mm
IC50 [20]: 79.8 µM
IC50 [23]: 63.1 µM
IC50 [21]: 63.4 µM

O=C(O)Cc1ccccc1Nc1c(Cl)cccc1Cl [DICLOFENAC]
Activity [12]: 84%

C[C@@H]1C[C@@H]([C@H](O)CC2CC(=O)NC(=O)C2)C(=O)[C@@H](C)C1 [CYCLOHEXIMIDE]
inhibition zone (IZ) [19]: 32 mm

O=C(C1=CN=C2CC(O)=NN2C1P(=O)(OCCCl)OCCCl)c1ccccc1O (configuration not stated)
IC50 [23]: 39.7 µg/mL

COc1ccc(Nc2nn3c(N)c(C#N)c(-c4cc(OC)ccc4OC)nc3c2C(=O)Nc2ccccc2)cc1
inhibition zone (IZ) [11]: 15 mm
inhibition zone (IZ) [18]: 16 mm
inhibition zone (IZ) [5]: 20 mm

Nc1nc2c(/N=N/c3ccc(C(F)(F)F)cc3)c(N)nn2c(N)c1/N=N/c1ccc(S(=O)(=O)Nc2ncccn2)cc1
IC50 [20]: 3.4 µg/mL
IC50 [21]: 1.4 µg/mL
IC50 [22]: 2.4 µg/mL (≈ 4.02 µM)

COc1ccc(Nc2nn3c(N)c(C#N)c(-c4cccc(Cl)c4)nc3c2C(=O)Nc2ccc(Cl)cc2)cc1
inhibition zone (IZ) [11]: 15 mm

CSc1nn2c(C)cc(=O)[nH]c2c1-c1nc2ccccc2n1C
Activity [13]: 0.26
Activity [14]: 0.12
Activity [15]: 0.16

COc1ccnc(Nc2n[nH]c(N)c2C#N)c1
IC50 [8]: 9.1 µM
IC50 [9]: 14.2 µM

O=C(Nc1ccccc1)c1cnn2c(-c3ccncc3)ccnc12
inhibition zone (IZ) [6]: 23 mm
inhibition zone (IZ) [18]: 12 mm

COc1ccc(Nc2nn3c(N)c(C#N)c(-c4cccc(Cl)c4)nc3c2C(=O)Nc2ccccc2)cc1
inhibition zone (IZ) [11]: 15 mm

O=C(Nc1ccccc1)c1cnn2ccc(-c3ccccn3)nc12
inhibition zone (IZ) [6]: 20 mm

CSc1nn2c(C)cc(C)nc2c1-c1nc2ccccc2n1C
Activity [13]: 0.27
Activity [14]: 0.11
inhibition zone (IZ) [18]: 9 mm
Activity [15]: 0.3

COc1ccc(Nc2nn3c(-c4ccccc4)ccnc3c2C(N)=O)cc1
MIC [1]: 7.81 µg/mL (≈ 21.7 µM)
MIC [2]: 15.6 µg/mL (≈ 43.5 µM)
MIC [3]: 7.81 µg/mL (≈ 21.7 µM)
MIC [4]: 3.9 µg/mL (≈ 10.9 µM)

CCOc1cc(N)n2nc(Nc3cc(OC)ccn3)c(C#N)c2n1
Activity [7]: 46%
IC50 [8]: 8.5 µM
IC50 [9]: 8.2 µM

Cc1ccc(-c2nc3c(/N=N/c4cccc(C(F)(F)F)c4)c(N)nn3c(N)c2C#N)cc1
IC50 [20]: 0.64 µg/mL
IC50 [21]: 2.79 µg/mL
IC50 [22]: 1.89 µg/mL (≈ 4.33 µM)

CSc1nn2c(-c3ccccc3)c(C#N)c(N)nc2c1-c1nc2ccccc2n1C
Activity [13]: 0.51
Activity [14]: 0.19
inhibition zone (IZ) [17]: 9 mm
Activity [15]: 0.36

COc1ccc(Nc2nn3c(N)c(C#N)c(-c4cccc(C)c4)nc3c2C(=O)Nc2ccc(Cl)cc2)cc1
inhibition zone (IZ) [11]: 15 mm

Cc1cc(NN2C(=O)CCC2=O)n2ncc(C#N)c2n1
MIC [2]: 10 µg/mL (≈ 37 µM)
MIC [4]: 10 µg/mL (≈ 37 µM)

CC1=CC(c2ccccc2)n2nc(-c3ccccc3)cc2N1 (configuration not stated)
IC50 [20]: 0.64 µg/mL
IC50 [21]: 2.79 µg/mL
IC50 [22]: 1.89 µg/mL (≈ 6.58 µM)

CC/C(=C(\c1ccccc1)c1ccc(OCCN(C)C)cc1)c1ccccc1 [TAMOXIFEN]
IC50 [23]: 8.5 µg/mL

CCOP(=O)(OCC)C1C(C(=O)c2ccccc2O)=CN=C2CC(O)=NN21 (configuration not stated)
IC50 [23]: 21.9 µg/mL

COc1ccnc(Nc2nn3c(SC)c(C#N)c(N)nc3c2C#N)c1
IC50 [8]: 10.2 µM
IC50 [9]: 27.3 µM

Cc1cc(-n2ncc(C#N)c2N)n2ncc(C#N)c2n1
inhibition zone (IZ) [19]: 17.1 mm
inhibition zone (IZ) [18]: 14.2 mm
inhibition zone (IZ) [5]: 16.1 mm

Cc1nc2c(c(C)nc3c(C#N)cnn32)c(Cl)c1CCCl
inhibition zone (IZ) [11]: 17.2 mm
inhibition zone (IZ) [18]: 15.3 mm
inhibition zone (IZ) [5]: 15.1 mm

COC1=CC(=O)C[C@@H](C)[C@]12Oc1c(Cl)c(OC)cc(OC)c1C2=O [GRISEOFULVIN]
inhibition zone (IZ) [19]: 16.8 mm

COc1ccc(Nc2nn3c(-c4ccc(C)cc4)ccnc3c2C(N)=O)cc1
MIC [1]: 7.81 µg/mL (≈ 20.9 µM)
MIC [2]: 15.6 µg/mL (≈ 41.8 µM)
MIC [3]: 7.81 µg/mL (≈ 20.9 µM)
MIC [4]: 3.9 µg/mL (≈ 10.4 µM)

N#Cc1c(-c2ccccc2)nc2c(/N=N/c3cccc(C(F)(F)F)c3)c(N)nn2c1O
IC50 [20]: 2.41 µg/mL
IC50 [21]: 2.09 µg/mL
IC50 [22]: 2.39 µg/mL (≈ 5.65 µM)

COc1ccnc(Nc2nn3c(C)cc(C)nc3c2C#N)c1
Activity [7]: 46%
IC50 [8]: 8.5 µM
IC50 [9]: 5.6 µM

— ChEMBL document CHEMBL5241120, “Insights into the medicinal chemistry of heterocycles integrated with a pyrazolo[1,5-a]pyrimidine scaffold” (RSC Med Chem, 2022)
